# Biological target: T1, full-length beta-Catenin (Uniprot ID P35222) (Homo sapiens, UniProt P35222)
# T1 construct: 10 nM full-length beta-Catenin (Uniprot ID P35222)
# T1 sequence (P35222 1-781): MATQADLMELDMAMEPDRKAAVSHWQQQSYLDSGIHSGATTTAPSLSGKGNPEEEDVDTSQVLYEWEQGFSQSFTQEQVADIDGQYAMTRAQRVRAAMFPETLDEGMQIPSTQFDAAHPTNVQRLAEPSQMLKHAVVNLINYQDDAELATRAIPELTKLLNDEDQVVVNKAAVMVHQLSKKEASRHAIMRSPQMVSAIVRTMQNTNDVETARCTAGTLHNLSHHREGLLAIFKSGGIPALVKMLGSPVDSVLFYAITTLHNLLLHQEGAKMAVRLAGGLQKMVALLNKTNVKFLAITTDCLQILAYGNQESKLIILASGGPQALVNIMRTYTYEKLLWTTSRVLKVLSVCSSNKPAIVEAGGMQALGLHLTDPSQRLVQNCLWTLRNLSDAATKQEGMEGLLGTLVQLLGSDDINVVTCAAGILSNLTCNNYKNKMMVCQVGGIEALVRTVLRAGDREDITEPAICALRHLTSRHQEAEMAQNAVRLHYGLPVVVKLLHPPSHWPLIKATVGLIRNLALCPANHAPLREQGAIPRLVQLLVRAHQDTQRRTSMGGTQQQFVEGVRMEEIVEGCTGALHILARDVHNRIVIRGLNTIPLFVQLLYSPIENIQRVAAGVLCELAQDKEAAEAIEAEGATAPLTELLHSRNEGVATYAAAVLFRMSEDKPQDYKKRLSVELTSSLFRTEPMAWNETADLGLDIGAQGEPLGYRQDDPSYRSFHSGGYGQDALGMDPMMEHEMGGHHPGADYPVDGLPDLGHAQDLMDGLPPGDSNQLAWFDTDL
# Experiment: Fluorescence polarization IC50 (beta-catenin / 5FAM-TCF4 10-53 competition)
# Assay type: binding
# Settings: beta-Catenin FP IC50 (nM), fluorescence polarization
row,SMILES,IC50 [nM]
1,"CC(C)C[C@@H]1NC(=O)[C@H](Cc2ccccc2)NC(=O)[C@H](C)NC(=O)[C@H](C)NC(=O)[C@H](Cc2cccc(C(=O)O)c2)NC(=O)[C@H](CC(=O)O)NC(=O)C2(CCCC=CCCCOC(=O)N3CC[C@@](C(=O)N[C@@H](Cc4ccccc4Cl)C(=O)N[C@@H](Cc4csc5ccccc45)C(=O)N[C@@H](C)C(N)=O)(C3)NC1=O)CCCC=CC[C@]1(CCCN1C(=O)CCl)C(=O)N[C@@H](CC(=O)O)C(=O)N[C@@H](CC(C)(C)C)C(=O)N2 (stereo partly drawn) [I-2253, ClAc-PL3-Asp-Npg-B5-Asp-3COOHF-Ala-Ala-Phe-Leu-PyrS2-2C1F-BztA-Ala-NH2]",189

# Same assay, conditions: fluorescence polarization; read-out: beta-Catenin FP IC50
row,SMILES,IC50 [nM]
1,"CC(=O)N1CCC[C@]12CC=CCCCC1(CCCC=CCCCOC(=O)N3CC[C@@](C(=O)N[C@@H](Cc4ccsc4)C(=O)N[C@@H](Cc4c[nH]c5ncccc45)C(=O)N[C@@H](CCC(N)=O)C(N)=O)(C3)NC(=O)[C@H](CC(N)=O)NC(=O)[C@H](Cc3ccccc3)NC(=O)[C@H](C)NC(=O)[C@H](C)NC(=O)[C@H](CC(=O)O)NC(=O)[C@H](CC(=O)O)NC1=O)NC(=O)[C@H](CC(C)(C)C)NC(=O)[C@H](CC(=O)O)NC2=O (stereo partly drawn) [I-2180, Ac-PL3-Asp-Npg-B5-Asp-Asp-Ala-Ala-Phe-Asn-PyrS2-3Thi-7AzaW-Gln-NH2]",2090
2,"CC(=O)N1CCC[C@]12CCCCCCC1(CCCCCCCCOC(=O)N3CC[C@@](C(=O)N[C@@H](Cc4ccsc4)C(=O)N[C@@H](Cc4csc5ccccc45)C(=O)N[C@@H](CCC(N)=O)C(N)=O)(C3)NC(=O)[C@H](CC(N)=O)NC(=O)[C@H](Cc3ccccc3)NC(=O)[C@H](C)NC(=O)[C@H](C)NC(=O)[C@H](CC(=O)O)NC(=O)[C@H](CC(=O)O)NC1=O)NC(=O)[C@H](CC(C)(C)C)NC(=O)[C@H](CC(=O)O)NC2=O (stereo partly drawn) [I-1987, Ac-PL3-Asp-Npg-B5-Asp-Asp-Ala-Ala-Phe-Asn-PyrS2-3Thi-BztA-Gln-NH2]",54
3,"CC(C)C[C@@H]1NC(=O)[C@H](Cc2ccccc2)NC(=O)[C@H](C)NC(=O)[C@H](C)NC(=O)[C@H](CN(CC(=O)O)CC(F)(F)F)NC(=O)[C@H](CC(=O)O)NC(=O)C2(CCCCCCCCOC(=O)N3CC[C@@](C(=O)N[C@@H](Cc4ccsc4)C(=O)N[C@@H](Cc4csc5ccccc45)C(=O)N[C@@H](CCC(N)=O)C(N)=O)(C3)NC1=O)CCCCCCOc1cccc(c1)C(=O)N[C@@H](CC(=O)O)C(=O)N[C@@H](CC(C)(C)C)C(=O)N2 (stereo partly drawn) [I-2376, BzAm3OAllyl-Asp-Npg-B5-Asp-TfeGA-Ala-Ala-Phe-Leu-PyrS2-3Thi-BztA-Gln-NH2]",352
4,"CC(=O)N1CCC[C@]12CC=CCCCC1(CCCC=CCCCOC(=O)N3CC[C@@](C(=O)N[C@@H](Cc4cccs4)C(=O)N[C@@H](Cc4csc5ccccc45)C(=O)N[C@@H](CCO)C(N)=O)(C3)NC(=O)[C@H](CC(N)=O)NC(=O)[C@H](Cc3ccccc3)NC(=O)[C@H](C)NC(=O)[C@H](CCCCNC(C)C)NC(=O)[C@H](CCC(N)=O)NC(=O)[C@H](CC(=O)O)NC1=O)NC(=O)[C@H](CC1CCCCC1)NC(=O)[C@H](CC(N)=O)NC2=O (stereo partly drawn) [I-2075, Ac-PL3-Asn-Cha-B5-Asp-Gln-iPrLys-Ala-Phe-Asn-PyrS2-2Thi-BztA-Hse-NH2]",2330
5,"CCC(C)N(CC(=O)O)C[C@@H]1NC(=O)[C@H](CC(=O)O)NC(=O)C2(CCCC=CCCCCCC[C@@](C)(C(=O)N[C@@H](Cc3ccsc3)C(=O)N[C@@H](Cc3csc4ccccc34)C(=O)N[C@@H](CCC(N)=O)C(N)=O)NC(=O)[C@H](CC(N)=O)NC(=O)[C@H](Cc3ccccc3)NC(=O)[C@H](C)NC(=O)[C@H](C)NC1=O)CCCC=CC[C@]1(CCCN1C(C)=O)C(=O)N[C@@H](CC(=O)O)C(=O)N[C@@H](CC(C)(C)C)C(=O)N2 (stereo partly drawn) [I-1626, Ac-PL3-Asp-Npg-B5-Asp-[sBu]GA-Ala-Ala-Phe-Asn-S8-3Thi-BztA-Gln-NH2]",721
6,"CC(=O)N1CCC[C@]12CC=CCCCC1(CCCC=CCCCOC(=O)N3CC[C@@](C(=O)N[C@@H](CC4CCCCC4)C(=O)N[C@@H](Cc4csc5ccccc45)C(=O)N[C@@H](CCC(N)=O)C(N)=O)(C3)NC(=O)[C@H](CC(C)C)NC(=O)[C@H](Cc3ccccc3)NC(=O)[C@H](C)NC(=O)[C@H](CCCCNC(C)C)NC(=O)[C@H](CCC(N)=O)NC(=O)[C@H](CC(=O)O)NC1=O)NC(=O)[C@H](CC(C)(C)C)NC(=O)[C@H](CC(N)=O)NC2=O (stereo partly drawn) [I-1651, Ac-PL3-Asn-Npg-B5-Asp-Gln-iPrLys-Ala-Phe-Leu-PyrS2-Cha-BztA-Gln-NH2]",3970

# Other lines, results leading:
row,IC50 [nM],SMILES
1,17,"CC(=O)N1CCC[C@]12CC=CCCCC1(CCCC=CCCCOC(=O)N3CC[C@@](C(=O)N[C@@H](Cc4ccccc4Cl)C(=O)N[C@@H](Cc4csc5ccccc45)C(=O)N[C@@H](CCC(N)=O)C(=O)N[C@H](CO)[C@@H](C)O)(C3)NC(=O)[C@H](CC(C)C)NC(=O)[C@H](Cc3ccccc3)NC(=O)[C@H](C)NC(=O)[C@H](C)NC(=O)[C@H](Cc3cccc(C(=O)O)c3)NC(=O)[C@H](CC(=O)O)NC1=O)NC(=O)[C@H](CC(C)(C)C)NC(=O)[C@H](CC(=O)O)NC2=O (stereo partly drawn) [I-1677, Ac-PL3-Asp-Npg-B5-Asp-3COOHF-Ala-Ala-Phe-Leu-PyrS2-2C1F-BztA-Gln-Thro1]"
2,2440,"CC(=O)N1CCC[C@]12CC=CCCCC1(CCCC=CCCCOC(=O)N3CC[C@@](C(=O)N[C@@H](Cc4ccccc4)C(=O)N[C@@H](Cc4csc5ccccc45)C(=O)N[C@@H](CCC(N)=O)C(N)=O)(C3)NC(=O)[C@H](CC(C)C)NC(=O)[C@H](Cc3ccccc3)NC(=O)[C@H](C)NC(=O)[C@H](CCCCNC(C)C)NC(=O)[C@H]([C@@H](C)O)NC(=O)[C@H](CC(=O)O)NC1=O)NC(=O)[C@H](CCC(N)=O)NC(=O)[C@H](CC(N)=O)NC2=O (stereo partly drawn) [I-1584, Ac-PL3-Asn-Gln-B5-Asp-Thr-iPrLys-Ala-Phe-Leu-PyrS2-Phe-BztA-Gln-NH2]"
3,3110,"CC(=O)N1CCC[C@]12CC=CCCCC1(CCCC=CCCCOC(=O)N3CC[C@@](C(=O)N[C@@H](Cc4ccccc4)C(=O)N[C@@H](Cc4csc5ccccc45)C(=O)N[C@@H](CCC(N)=O)C(N)=O)(C3)NC(=O)[C@H](CC(C)C)NC(=O)[C@H](Cc3ccccc3)NC(=O)[C@H](C)NC(=O)[C@H](CCCCNC(C)C)NC(=O)[C@H]([C@@H](C)O)NC(=O)[C@H](CC(=O)O)NC1=O)NC(=O)[C@H](CCCCNC(C)C)NC(=O)[C@H](CC(N)=O)NC2=O (stereo partly drawn) [I-1591, Ac-PL3-Asn-iPrLys-B5-Asp-Thr-iPrLys-Ala-Phe-Leu-PyrS2-Phe-BztA-Gln-NH2]"
4,75,"CC(=O)N1CCC[C@]12CC=CCCCC1(CCCC=CCCCOC(=O)N3CC[C@@](C(=O)N[C@@H](Cc4ccccc4C(F)(F)F)C(=O)N[C@@H](Cc4ccc5ccccc5c4)C(=O)N[C@@H](C)C(N)=O)(C3)NC(=O)[C@H](CC(C)C)NC(=O)[C@H](Cc3ccccc3)NC(=O)[C@H](C)NC(=O)[C@H](CCC(N)=O)NC(=O)[C@H](Cc3cccc(C(=O)O)c3)NC(=O)[C@H](CC(=O)O)NC1=O)NC(=O)[C@H](CC(C)(C)C)NC(=O)[C@H](CC(=O)O)NC2=O (stereo partly drawn) [I-2461, Ac-PL3-Asp-Npg-B5-Asp-3COOHF-Gln-Ala-Phe-Leu-PyrS2-2F3MeF-2NapA-Ala-NH2]"
5,233,"CC(=O)N1CCC[C@]12CC=CCCCC1(CCCC=CCCCOC(=O)N3CC[C@@](C(=O)N[C@@H](Cc4ccsc4)C(=O)N[C@@H](Cc4csc5ccccc45)C(=O)N[C@@H](Cc4c[nH]cn4)C(N)=O)(C3)NC(=O)[C@H](CC(N)=O)NC(=O)[C@H](Cc3ccccc3)NC(=O)[C@H](C)NC(=O)[C@H](C)NC(=O)[C@H]([C@@H](C)O)NC(=O)[C@H](CC(N)=O)NC1=O)NC(=O)[C@H](CC(C)(C)C)NC(=O)[C@H](CC(=O)O)NC2=O (stereo partly drawn) [I-2140, Ac-PL3-Asp-Npg-B5-Asn-Thr-Ala-Ala-Phe-Asn-PyrS2-3Thi-BztA-His-NH2]"
6,8750,"CC(=O)N1CCC[C@]12CC=CCCCC1(CCCC=CCCCOC(=O)N3CC[C@@](C(=O)N[C@@H](Cc4ccsc4)C(=O)N[C@@H](Cc4csc5ccccc45)C(=O)N[C@@H](CCC(N)=O)C(N)=O)(C3)NC(=O)[C@H](CC(N)=O)NC(=O)[C@H](Cc3ccccc3)NC(=O)[C@H](C)NC(=O)[C@H](C)NC(=O)[C@H]([C@@H](C)O)NC(=O)[C@H](CC(N)=O)NC1=O)NC(=O)[C@H](CC(C)(C)C)NC(=O)[C@H](CCCC(=O)O)NC2=O (stereo partly drawn) [I-2133, Ac-PL3-Aad-Npg-B5-Asn-Thr-Ala-Ala-Phe-Asn-PyrS2-3Thi-BztA-Gln-NH2]"
7,940,"CC(=O)N1CCC[C@]12CC=CCCCC1(CCCC=CCCCOC(=O)N3CC[C@@](C(=O)N[C@@H](Cc4ccccc4)C(=O)N[C@@H](Cc4csc5ccccc45)C(=O)N[C@@H](CCCCNC(C)C)C(N)=O)(C3)NC(=O)[C@H](CC(C)C)NC(=O)[C@H](Cc3ccccc3)NC(=O)[C@H](C)NC(=O)[C@H](CCCCNC(C)C)NC(=O)[C@H](CCC(N)=O)NC(=O)[C@H](CC(=O)O)NC1=O)NC(=O)[C@H](CC(C)(C)C)NC(=O)[C@H](CC(N)=O)NC2=O (stereo partly drawn) [I-1645, Ac-PL3-Asn-Npg-B5-Asp-Gln-iPrLys-Ala-Phe-Leu-PyrS2-Phe-BztA-iPrLys-NH2]"

# Source: patent publication US20240116985A1, “STAPLED PEPTIDES AND METHODS THEREOF” (priority 2020, published 2024)
